Reference: US10654853B2, “Spiro-condensed pyrrolidine derivatives as deubiquitylating enzymes (DUB) inhibitors” (MISSION THERAPEUTICS LIMITED, priority 2016, dated 2020)
Where two headings read alike, the source gives them in different places.

Molecular target: Cezanne 1 (Homo sapiens (Human), UniProt Q6GQQ9)
Test: Cezanne 1 biochemical IC50 assay (fluorescence polarisation, TAMRA labelled peptide linked to ubiquitin)
Procedure: The Cezanne 1 construct was PCR amplified and cloned into a pFLAG-CMV-6c vector (Sigma-Aldrich) with an N-terminal FLAG tag. HEK293T cells were transfected with FLAG-Cezanne 1 using TransIT-LT1 transfection reagent (Mirus) according to the manufacturer's instructions. Cells were harvested 48 hours after transfection. […] The resin was washed two times with low salt buffer and one time with high salt buffer (20 mM Tris, pH 7.5, 500 mM NaCl, 0.5 mM EDTA, 5 mM beta-mercaptoethanol, protease inhibitors (complete mini, Roche) and phosphatase inhibitors (PhosSTOP mini, Roche). To elute the bound Cezanne 1, elution buffer (10 mM Tris, pH 7.5, 150 mM NaCl, 0.5 mM EDTA, 10% glycerol, 0.5% NP40, 5 mM beta-mercaptoethanol, 0.15 mg/ml 3× FLAG peptide (Sigma-Aldrich)) was added to the resin and incubated at 4° C. for 2.5 hours while rotating. The resin was centrifuged at 4000 rpm for 30 seconds, and the supernatant containing purified FLAG-Cezanne 1 was removed and stored at −80° C. […] Dilution plates were prepared at 21 times the final concentration (2100 μM for a final concentration of 100 μM) in 50% DMSO in a 96-well polypropylene V-bottom plate (Greiner #651201). […] Reactions were performed in duplicate in black 384 well plates (small volume, Greiner 784076) in a final reaction volume of 21 μl. Either 1 μl of 50% DMSO or diluted compound was added to the plate. Cezanne 1 was diluted in reaction buffer (40 mM Tris, pH 7.5, 0.005% Tween 20, 0.5 mg/ml BSA, 5 mM—beta-mercaptoethanol) to the equivalent of 0.005 μl/well and 10 μl of diluted Cezanne 1 was added to the compound. Enzyme and compound were incubated for 30 min at room temp. Reactions were initiated by the addition of 50 nM of TAMRA labelled peptide linked to ubiquitin via an iso-peptide bond as fluorescence polarisation substrate. Reactions were read immediately after addition of substrate and following a 2 hr incubation at room temperature. Readings were performed on a Pherastar Plus (BMG Labtech). λ Excitation 540 nm; λ Emission 590 nm.

[1] = Cezanne 1 biochemical IC50 assay, 30 min pre-incubation, read after 2 hr at room temperature, read-out: IC50 range

Cezanne 1, sequence (Q6GQQ9 whole entry): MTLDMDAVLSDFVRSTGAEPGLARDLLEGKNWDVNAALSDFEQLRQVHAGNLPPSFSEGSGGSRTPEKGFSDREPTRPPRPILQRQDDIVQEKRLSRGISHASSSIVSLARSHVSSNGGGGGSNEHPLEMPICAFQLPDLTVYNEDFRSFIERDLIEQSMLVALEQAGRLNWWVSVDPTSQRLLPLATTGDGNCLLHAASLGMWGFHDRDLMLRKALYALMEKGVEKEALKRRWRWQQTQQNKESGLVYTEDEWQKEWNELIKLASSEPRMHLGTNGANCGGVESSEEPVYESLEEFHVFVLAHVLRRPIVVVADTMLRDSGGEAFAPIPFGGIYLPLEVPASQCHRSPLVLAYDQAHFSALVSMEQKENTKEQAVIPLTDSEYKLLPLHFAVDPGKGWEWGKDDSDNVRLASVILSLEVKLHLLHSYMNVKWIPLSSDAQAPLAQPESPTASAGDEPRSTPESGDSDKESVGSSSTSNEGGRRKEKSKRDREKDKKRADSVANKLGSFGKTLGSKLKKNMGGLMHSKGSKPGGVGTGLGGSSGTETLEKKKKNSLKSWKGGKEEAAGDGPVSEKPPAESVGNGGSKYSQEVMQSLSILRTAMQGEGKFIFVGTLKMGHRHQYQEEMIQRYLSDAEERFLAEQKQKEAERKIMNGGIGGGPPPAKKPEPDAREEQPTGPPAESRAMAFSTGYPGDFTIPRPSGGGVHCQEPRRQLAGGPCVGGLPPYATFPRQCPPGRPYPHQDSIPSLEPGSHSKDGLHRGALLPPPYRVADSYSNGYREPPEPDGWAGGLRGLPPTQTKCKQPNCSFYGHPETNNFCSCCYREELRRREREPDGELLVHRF

Row | SMILES | IC50 [1] [nM] | IC50 [nM]
1 | N#CN1CCC2(Cc3cc(-c4ccc(C(=O)NCc5ccccc5)cc4)ccc3NC2=O)C1 (stereo not shown) [Example 127, N-Benzyl-4-(1-cyano-2′-oxo-1′,4′-dihydro-2′H-spiro[pyrrolidine-3,3′-quinolin]-6′-yl)benzamide] | 100 to 1000 | 
2 | COc1ccc2c(c1)NC(=O)C1(CCN(C#N)C1)C2 (stereo not shown) [Example 3, 7′-Methoxy-2′-oxo-1′,4′-dihydro-2′H-spiro[pyrrolidine-3,3′-quinoline]-1-carbonitrile] |  | 1000 to 10000
3 | N#CN1CCC2(C1)Nc1ncccc1NC2=O (stereo not shown) [Example 55, 2-Oxo-1,4-dihydro-2H-spiro[pyrido[2,3-b]pyrazine-3,3′-pyrrolidine]-1′-carbonitrile] | 1000 to 10000 | 
4 | N#CN1CCC2(Cc3ccc(-c4ccc(S(=O)(=O)N5CCOCC5)cc4)cc3NC2=O)C1 (stereo not shown) [Example 32, 7′-(4-(Morpholinosulfonyl)phenyl)-2′-oxo-1′,4′-dihydro-2′H-spiro[pyrrolidine-3,3′-quinoline]-1-carbonitrile] | 1000 to 10000 | 
5 | N#CN1CCC2(C1)Oc1ncc(-c3ccc(F)cc3)cc1NC2=O (stereo not shown) [Example 52, 7-(4-Fluorophenyl)-2-oxo-1,2-dihydrospiro[pyrido[2,3-b][1,4]oxazine-3,3′-pyrrolidine]-1′-carbonitrile] | 100 to 1000 | 
6 | COc1ccc(C(C)C)cc1-c1ccc2c(c1)CC1(CCN(C#N)C1)C(=O)N2 (stereo not shown) [Example 101, 6′-(5-Isopropyl-2-methoxyphenyl)-2′-oxo-1′,4′-dihydro-2′H-spiro[pyrrolidine-3,3′-quinoline]-1-carbonitrile] | 100 to 1000 | 
7 | N#Cc1ccc(-c2ccc3c(c2)NC(=O)C2(CCN(C#N)C2)C3)cc1 (stereo not shown) [Example 13, 7′-(4-Cyanophenyl)-2′-oxo-1′,4′-dihydro-2′H-spiro[pyrrolidine-3,3′-quinoline]-1-carbonitrile] | 1000 to 10000 | 
8 | Cc1cc(-c2ccc3c(c2)NC(=O)C2(CCN(C#N)C2)C3)ccn1 (stereo not shown) [Example 34, 7′-(2-Methylpyridin-4-yl)-2′-oxo-1′,4′-dihydro-2′H-spiro[pyrrolidine-3,3′-quinoline]-1-carbonitrile] | 1000 to 10000 | 
9 | N#CN1CC[C@@]2(C1)Nc1ncccc1NC2=O [Example 66, (S)-2-Oxo-1,4-dihydro-2H-spiro[pyrido[2,3-b]pyrazine-3,3′-pyrrolidine]-1′-carbonitrile] | 100 to 1000 | 
10 | Cc1ccc2[nH]ncc2c1-c1ccc2c(c1)NC(=O)C1(CCN(C#N)C1)C2 (stereo not shown) [Example 25, 7′-(5-Methyl-1H-indazol-4-yl)-2′-oxo-1′,4′-dihydro-2′H-spiro[pyrrolidine-3,3′-quinoline]-1-carbonitrile] | 100 to 1000 | 
11 | N#CN1CCC2(Cc3ccccc3NC2=O)C1 (stereo not shown) [Example 1, 2′-Oxo-1′,4′-dihydro-2′H-spiro[pyrrolidine-3,3′-quinoline]-1-carbonitrile] | 1000 to 10000 | 
12 | Cc1ccc2[nH]ncc2c1-c1ccc2c(c1)NC(=O)[C@@]1(CCN(C#N)C1)C2 [Example 132, (R)-7′-(5-Methyl-H-indazol-4-yl)-2′-oxo-1′,4′-dihydro-2′H-spiro[pyrrolidine-3,3′-quinoline]-1-carbonitrile] | 100 to 1000 | 
13 | N#CN1CCC2(Cc3cc(-c4cccc(OCc5ccccc5Cl)c4)ccc3NC2=O)C1 (stereo not shown) [Example 102, 6′-(3-((2-Chlorobenzyl)oxy)phenyl)-2′-oxo-1′,4′-dihydro-2′H-spiro[pyrrolidine-3,3′-quinoline]-1-carbonitrile] | 1000 to 10000 | 
14 | N#CN1CCC2(Cc3cc(-c4ccc(S(=O)(=O)N5CCOCC5)cc4)ccc3NC2=O)C1 (stereo not shown) [Example 116, 6′-(4-(Morpholinosulfonyl)phenyl)-2′-oxo-1′,4′-dihydro-2′H-spiro[pyrrolidine-3,3′-quinoline]-1-carbonitrile] | 100 to 1000 | 
15 | CC(=O)Nc1cccc(-c2ccc3c(c2)CC2(CCN(C#N)C2)C(=O)N3)c1 (stereo not shown) [Example 112, N-(3-(1-Cyano-2′-oxo-1′,4′-dihydro-2′H-spiro[pyrrolidine-3,3′-quinolin]-6′-yl)phenyl)acetamide] | 100 to 1000 | 
16 | N#CN1CC[C@@]2(C1)Oc1ncccc1NC2=O [Example 65, (S)-2-Oxo-1,2-dihydrospiro[pyrido[2,3-b][1,4]oxazine-3,3′-pyrrolidine]-1′-carbonitrile] | 1000 to 10000 | 
17 | N#CN1CCC2(C1)Nc1nc(-c3ccccc3)ccc1NC2=O (stereo not shown) [Example 147, 2-Oxo-6-phenyl-1,4-dihydro-2H-spiro[pyrido[2,3-b]pyrazine-3,3′-pyrrolidine]-1′-carbonitrile] | 1000 to 10000 | 
18 | N#CN1CCC2(C1)Nc1ncc(-c3ccc(F)cc3)cc1NC2=O (stereo not shown) [Example 59, 7-(4-Fluorophenyl)-2-oxo-1,4-dihydro-2H-spiro[pyrido[2,3-b]pyrazine-3,3′-pyrrolidine]-1′-carbonitrile] | 100 to 1000 | 
19 | N#CN1CC[C@]2(CCNC2=O)C1 [Example 63, (R)-6-Oxo-2,7-diazaspiro[4.4]nonane-2-carbonitrile] | 1000 to 10000 | 
20 | N#CN1CCC2(Cc3ccc(-c4cccc(OC(F)(F)F)c4)cc3NC2=O)C1 (stereo not shown) [Example 88, 2′-Oxo-7′-(3-(trifluoromethoxy)phenyl)-1′,4′-dihydro-2′H-spiro[pyrrolidine-3,3′-quinoline]-1-carbonitrile] | 1000 to 10000 | 
21 | CNC(=O)c1ccc(-c2ccc3c(c2)NC(=O)C2(CCN(C#N)C2)C3)cn1 (stereo not shown) [Example 15, 5-(1-Cyano-2′-oxo-1′,4′-dihydro-2′H-spiro[pyrrolidine-3,3′-quinolin]-7′-yl)-N-methylpicolinamide] | 1000 to 10000 | 
22 | N#CN1CCC2(C1)Oc1nc(C(=O)N3CCCCC3)ccc1NC2=O (stereo not shown) [Example 142, 2-Oxo-6-(piperidine-1-carbonyl)-1,2-dihydrospiro[pyrido[2,3-b][1,4]oxazine-3,3′-pyrrolidine]-1′-carbonitrile] | 1000 to 10000 | 
23 | N#CN1CCC2(Cc3cc(-c4cccc(OC(F)(F)F)c4)ccc3NC2=O)C1 (stereo not shown) [Example 95, 2′-Oxo-6′-(3-(trifluoromethoxy)phenyl)-1′,4′-dihydro-2′H-spiro[pyrrolidine-3,3′-quinoline]-1-carbonitrile] | 100 to 1000 | 
24 | N#CN1CCC2(C1)Oc1ncc(-c3ccccc3)cc1NC2=O (stereo not shown) [Example 49, 2-Oxo-7-phenyl-1,2-dihydrospiro[pyrido[2,3-b][1,4]oxazine-3,3′-pyrrolidine]-1′-carbonitrile] | 100 to 1000 | 
25 | N#Cc1cccc(-c2ccc3c(c2)CC2(CCN(C#N)C2)C(=O)N3)c1 (stereo not shown) [Example 43, 6′-(3-Cyanophenyl)-2′-oxo-1′,4′-dihydro-2′H-spiro[pyrrolidine-3,3′-quinoline]-1-carbonitrile] | 100 to 1000 | 
26 | Cn1cc(-c2ccc3c(c2)CC2(CCN(C#N)C2)C(=O)N3)ccc1=O (stereo not shown) [Example 122, 6′-(1-Methyl-6-oxo-1,6-dihydropyridin-3-yl)-2′-oxo-1′,4′-dihydro-2′H-spiro[pyrrolidine-3,3′-quinoline]-1-carbonitrile] | 1000 to 10000 | 
27 | COc1ccc(-c2cnc3c(c2)NC(=O)C2(CCN(C#N)C2)O3)c(C)n1 (stereo not shown) [Example 138, 7-(6-Methoxy-2-methylpyridin-3-yl)-2-oxo-1,2-dihydrospiro[pyrido[2,3-b][1,4]oxazine-3,3′-pyrrolidine]-1′-carbonitrile] | 100 to 1000 | 
28 | COc1ccc(C(C)C)cc1-c1ccc2c(c1)NC(=O)C1(CCN(C#N)C1)C2 (stereo not shown) [Example 5, 7′-(5-Isopropyl-2-methoxyphenyl)-2′-oxo-1′,4′-dihydro-2′H-spiro[pyrrolidine-3,3′-quinoline]-1-carbonitrile] | 1000 to 10000 | 
